{"source": "paper PMC2931804", "about": "(Clinical cancer research : an official journal of the …, 2010)", "key": {"thymidylate synthase": {"tested_on": "thymidylate synthase", "settings": "in vitro and in vivo models, quantitative-PCR analysis; cited from earlier work"}, "[1]": {"experiment": "Vorinostat serum pharmacokinetics", "format": "in vivo, human"}, "[2]": {"settings": "600 mg orally twice daily, individual patients, cycle 2"}, "[3]": {"settings": "1,700 mg orally once daily, individual patients, cycle 2"}}, "note": "“And” between values parts separate entries of the source, which are not always exact repeats. Equal entries are not always repeated.", "data": [{"smiles": "O=C(CCCCCCC(=O)Nc1ccccc1)NO", "note": "[vorinostat, suberoylanilide hydroxamic acid]", "values": [{"measurement": "Downregulation of thymidylate synthase expression", "setting": "thymidylate synthase", "result": "≤ 100", "unit": "fold"}, {"measurement": "AUC0–8", "setting": "[1]; [2]", "result": 7.8, "unit": "µM·h"}, {"measurement": "Cmax", "setting": "[1]; [2]", "result": 4.99, "unit": "µM"}, {"measurement": "Tmax", "setting": "[1]; [2]", "result": "2 h and 4 h"}, {"measurement": "Cmax", "setting": "[1]; 600 mg orally twice daily, mean of 3 patients (SD 1.51)", "result": 3.46, "unit": "µM"}, {"measurement": "AUC0–8", "setting": "[1]; [3]", "result": "35.1 µM·h and 2.6 µM·h and 26 µM·h"}, {"measurement": "Cmax", "setting": "[1]; [3]", "result": 6.4, "unit": "µM"}, {"measurement": "Tmax", "setting": "[1]; [3]", "result": 1, "unit": "h"}, {"measurement": "Cmax", "setting": "[1]; 1,700 mg orally once daily, mean of 3 patients (SD 3.09)", "result": 4.49, "unit": "µM"}, {"measurement": "half-life", "setting": "[1]; human, oral, half-life, general statement in discussion", "result": "~2", "unit": "h"}]}]}
